Assay results from article PMC9594046, “Identification of Histone Peptide Binding Specificity and Small-Molecule Ligands for the TRIM33α and TRIM33β Bromodomains” (ACS Chemical Biology, 2022).
Substitutions are numbered along the chain they refer to. One block for each molecule: values may come before it.

How the values were obtained:
BRPF1 BRD = settings: read-out: BRPF Kd (ITC); cited from earlier work
TRIM24 PHD-BRD = target: T1, TRIM24 PHD-BRD (Homo sapiens, UniProt O15164); test: AlphaScreen dose-response displacement of biotinylated H3 peptide
T1 sequence (O15164 with tags, fused parts or gaps): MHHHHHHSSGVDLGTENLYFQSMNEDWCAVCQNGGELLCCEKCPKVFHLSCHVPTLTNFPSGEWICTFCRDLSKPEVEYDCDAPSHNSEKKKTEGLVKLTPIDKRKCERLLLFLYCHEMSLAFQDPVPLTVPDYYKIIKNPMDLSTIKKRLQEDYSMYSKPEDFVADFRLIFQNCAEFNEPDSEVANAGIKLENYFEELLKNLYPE
Method: (§5) To establish an AlphaScreen assay,[13],[50],[51] the PHD-BRD cassettes of TRIM24 and both TRIM33 isoforms were expressed with an N-terminal His6 tag attached (CD spectra for these constructs are shown in Figure S9).
(§6) Assay buffer was freshly prepared each day by supplementing HEPES buffer with BSA, the pH was
(§7) adjusted to 7.6 and filter sterilized through a 0.22 µm filter, and stored at 4 °C until use.
(§8) steps, the plate was sealed, shaken for 10 sec at 600 rpm on a plate oscillator, and incubated at room
(§9) in triplicate, as point concentrations or serial buffer dilutions from 50 mM DMSO solutions.
(§10) peptide mix (7 µL) was dispensed into each well using a Thermo-Fisher electronic multi-channel
(§11) pipette, and incubated for 30 min. AlphaScreen bead mix (8 µL; 25 µg/mL of acceptor and donor beads)
(§12) was added to each well, taking adequate precautions to avoid light exposure, before being incubated for
(§13) 1 h. The plate was read using a Synergy™ 2 MultiMode Microplate Reader using the built-in
(§14) Single shot screening was performed in triplicate.
(§15) <0.5% DMSO. Inhibition is reported as a reduction in signal arising from peptide-bromodomain
(§16) interaction, normalised to a DMSO control. Signal response curves were obtained for peptides or
(§17) compounds in triplicate, with serial 1:2 dilutions. Samples containing buffer or DMSO in place of
(§18) compound were included in all assays for normalisation. Data were processed by fitting a four-
(§19) parameter equation shown below to calculate IC50 values using GraFit version 7.0.32 or GraphPad Prism
(§20) 𝑌 = 𝑀𝑖𝑛𝑖𝑚𝑢𝑚 + 𝑀𝑎𝑥𝑖𝑚𝑢𝑚 − 𝑚𝑖𝑛𝑖𝑚𝑢𝑚 ,𝑤ℎ𝑒𝑟𝑒 𝑋 = log (𝑐𝑜𝑚𝑝𝑜𝑢𝑛𝑑 𝑐𝑜𝑛𝑐𝑒𝑛𝑡𝑟𝑎𝑡𝑖𝑜𝑛) 1 + 10("#$%&!"’()(*+,, .,/01)
(§21) Assay buffer was prepared as above. For incubation steps, the plate was sealed, shaken for 10 sec at
(§22) 600 rpm on a plate oscillator, and incubated at room temperature in the dark. Peptides (5 µL) were
(§23) dilutions from 100 µM HEPES buffer stock solutions. Protein (7 µL) was dispensed into each well
(§24) using a Thermo-Fisher electronic multi-channel pipette, and incubated for 30 min. AlphaScreen bead
(§25) mix (8 µL; 25 µg/mL of acceptor and donor beads) was added to each well, avoiding light exposure,
(§26) before being incubated for 1 h. The plate was read using a Synergy™ 2 MultiMode Microplate Reader
(§27) Ni2+ chelate acceptor and streptavidin donor beads were prepared as a mixture in a 1:300 or 1:400
(§28) dilution as required (0.005–0.007 mg/mL FAC); biotinylated peptide employed, and final assay
(§29) concentrations were as detailed in table below. Assay well volume was 20 µL.
(§30) Peptides were supplied as 1–9 mg quantities with >95% purity (as determined by HPLC; Cambridge
(§31) Research Biochemicals or Genscript). Residual water and counter ions were predicted to comprise 20%
(§32) of the net mass, and peptides were dissolved to 10, 1.0, and 0.1 mM stocks in buffer (50 mM HEPES,
(§33) 500 mM NaCl; pH 7.6) before being stored at -80 °C in 5 µL aliquots. A terminal tyrosine residue was
(§34) incorporated into the peptide structure to allow for accurate quantification of concentration.

TRIM24 BRD = settings: read-out: TRIM24 Kd (ITC); cited from earlier work
TRIM33α PHD-BRD = target: T2, TRIM33α PHD-BRD (Homo sapiens, UniProt Q9UPN9); test: AlphaScreen dose-response displacement of biotinylated H3 peptide; settings: for IC50: TRIM33α IC50 (AlphaScreen)
T2 sequence (Q9UPN9 888-1127): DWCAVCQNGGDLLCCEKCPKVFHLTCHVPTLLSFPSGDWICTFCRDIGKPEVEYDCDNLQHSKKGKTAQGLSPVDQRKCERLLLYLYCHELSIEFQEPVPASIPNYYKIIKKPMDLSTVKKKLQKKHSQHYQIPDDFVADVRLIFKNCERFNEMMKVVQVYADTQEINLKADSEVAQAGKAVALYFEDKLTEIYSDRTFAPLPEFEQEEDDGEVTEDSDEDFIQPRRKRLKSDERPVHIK
Method: as §5, §6, §7, §8, §9, §10, §11, §12, §13, §14, §15, §16, §17, §18, §19, §20, §21, §22, §23, §24, §25, §26, §27, §28, §29, §30, §31, §32, §33, §34

TRIM33β WT = target: T3, TRIM33β WT (Homo sapiens, UniProt Q9UPN9); test: Qualitative WaterLOGSY binding; parameters: key: ✓: √ is assigned to compounds that showed binding; ? is assigned when the result was ambiguous; × is assigned when no-binding was observed; settings: 500 µM compound, 20 µM protein
T3 construct: The TRIM33β cassette (residues 888–1127) was expressed; made in house; host or cells: E. coli BL21 (DE3) Gold
T3 sequence (Q9UPN9 888-1110 isoform Q9UPN9-2 limits assumed): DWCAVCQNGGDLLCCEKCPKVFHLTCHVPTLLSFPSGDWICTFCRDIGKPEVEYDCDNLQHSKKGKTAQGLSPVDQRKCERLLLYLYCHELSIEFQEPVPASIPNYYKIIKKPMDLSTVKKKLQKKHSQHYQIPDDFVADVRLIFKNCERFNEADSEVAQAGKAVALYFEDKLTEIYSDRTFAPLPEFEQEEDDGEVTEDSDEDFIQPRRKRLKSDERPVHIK
Source text: To determine whether compounds 3–7 are genuine ligands for TRIM33, we employed an AlphaScreen TruHits screen.[58] The TruHits screen includes streptavidin-coated donor beads and biotinylated acceptor beads, which interact to generate a signal. Compounds that interfere with this control signal, such as fluorescence quenchers, insoluble light scatterers, ^1O2 quenchers, and biotin mimetics, can be identified using this approach. In the TruHits screen,[59] significant assay interference was observed from all five compounds (3–7, Table S21), meaning that AlphaScreen data generated for these compounds are unreliable. We therefore sought to investigate TRIM33 binding of compounds 3 and 4 using ITC and waterLOGSY approaches (Figures S3–6). These compounds were selected as they have a range of reported IC50 values for TRIM33. […] To determine whether these compounds are weak binders to TRIM33β, we subjected them to a waterLOGSY assay against TRIM33β. […] However, the use of different protein isoforms may account for some of the observed discrepancies.
(§1) To investigate where these compounds bind on the TRIM24 or 33 PHD-BRD cassette, we performed waterLOGSY experiments using the wild-type and mutant reader domains (Table 4).
(§2) Table S19. WaterLOGSY buffer composition (10 mM Na/K phosphate buffer, PBS, pH 7.6).
(§3) Reagent Amount required per litre (g)
(§4) The buffer was filtered under vacuum through a 0.2 µm filter paper (Sartorius UK) before use and stored at 4 °C. Proteins were buffer exchanged from HEPES storage buffer into PBS buffer (0.9% NaCl, pH 7.6) using GE Healthcare PD SpinTrap G-25 columns. For each compound, a water-suppressed 1H spectrum was recorded as a reference, followed by waterLOGSY spectra of the compound in the absence and presence of the specified protein. Samples were prepared to a total sample volume of 160 µL in PBS buffer (pH 7.6), with 500 µM compound (unless otherwise specified) from 50 mM DMSO-D6 stock solutions, 10% D2O for signal locking, and 20 µM protein (unless otherwise specified) for samples with protein. After loading into 3 mm Hilgenberg NMR tubes for Bruker Match™ system, samples were briefly centrifuged in a manual benchtop rotor. Spectra were recorded on a Bruker AVIII 700 MHz spectrometer with inverse TCI cryoprobe using a standard waterLOGSY pulse sequence.4 Peaks were assigned using DMSO-D6 as a reference peak at 2.5 ppm.

TRIM24 N980F = target: T4, TRIM24 N980F (Homo sapiens, UniProt O15164, N980F); test: Qualitative WaterLOGSY binding; parameters: key: ✓: √ is assigned to compounds that showed binding; ? is assigned when the result was ambiguous; × is assigned when no-binding was observed; settings: 500 µM compound, 20 µM protein
T4 sequence (O15164 825-1007 N980F limits assumed): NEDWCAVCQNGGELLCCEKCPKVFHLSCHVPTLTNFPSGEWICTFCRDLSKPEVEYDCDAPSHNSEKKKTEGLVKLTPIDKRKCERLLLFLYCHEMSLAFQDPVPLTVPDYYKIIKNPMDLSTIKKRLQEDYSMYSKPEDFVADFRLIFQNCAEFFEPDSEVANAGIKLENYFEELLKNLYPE
Method: as §1, §2, §3, §4

TRIM33α WT = target: T5, TRIM33α WT (Homo sapiens, UniProt Q9UPN9); test: Qualitative WaterLOGSY binding; parameters: key: ✓: √ is assigned to compounds that showed binding; ? is assigned when the result was ambiguous; × is assigned when no-binding was observed; settings: 500 µM compound, 20 µM protein
T5 construct: The TRIM33β cassette (residues 888–1127) was expressed; made in house; host or cells: E. coli BL21 (DE3) Gold
T5 sequence (Q9UPN9 888-1127): T2 sequence (Q9UPN9 888-1127)
Method: as §1, §2, §3, §4

TRIM24 WT = target: T6, TRIM24 WT (Homo sapiens, UniProt O15164); test: Qualitative WaterLOGSY binding; parameters: key: ✓: √ is assigned to compounds that showed binding; ? is assigned when the result was ambiguous; × is assigned when no-binding was observed; settings: 500 µM compound, 20 µM protein
T6 construct: His6-TRIM24 (BRD-PHD); made in house; host or cells: E. coli BL21 (DE3) Gold
T6 sequence (O15164 with tags, fused parts or gaps): T1 sequence (O15164 with tags, fused parts or gaps)
Method: as §1, §2, §3, §4

TRIM33α N1039F = target: T7, TRIM33α N1039F (Homo sapiens, UniProt Q9UPN9, N1039F); test: Qualitative WaterLOGSY binding; parameters: key: ✓: √ is assigned to compounds that showed binding; ? is assigned when the result was ambiguous; × is assigned when no-binding was observed; settings: 500 µM compound, 20 µM protein
T7 construct: The TRIM33β cassette (residues 888–1127) was expressed; made in house; host or cells: E. coli BL21 (DE3) Gold
T7 sequence (Q9UPN9 888-1127 N1039F): T2 sequence (Q9UPN9 888-1127) with N152F
Method: as §1, §2, §3, §4

TRIM33β N1039F = target: T8, TRIM33β N1039F (Homo sapiens, UniProt Q9UPN9, N1039F); test: Qualitative WaterLOGSY binding; parameters: key: ✓: √ is assigned to compounds that showed binding; ? is assigned when the result was ambiguous; × is assigned when no-binding was observed; settings: 500 µM compound, 20 µM protein
T8 construct: The TRIM33β cassette (residues 888–1127) was expressed; made in house; host or cells: E. coli BL21 (DE3) Gold
T8 sequence (Q9UPN9 888-1110 isoform Q9UPN9-2 N1039F): T3 sequence (Q9UPN9 888-1110 isoform Q9UPN9-2 limits assumed) with N152F
Method: as §1, §2, §3, §4

TRIM33β PHD-BRD [1] = target: T9, TRIM33β PHD-BRD (Homo sapiens, UniProt Q9UPN9); test: AlphaScreen dose-response displacement of biotinylated H3 peptide
T9 sequence (Q9UPN9 888-1110 isoform Q9UPN9-2 limits assumed): T3 sequence (Q9UPN9 888-1110 isoform Q9UPN9-2 limits assumed)
Method: as §5, §6, §7, §8, §9, §10, §11, §12, §13, §14, §15, §16, §17, §18, §19, §20, §21, §22, §23, §24, §25, §26, §27, §28, §29, §30, §31, §32, §33, §34

TRIM33β PHD-BRD [2] = target: T9, TRIM33β PHD-BRD; test: Isothermal titration calorimetry (ITC); assay type: binding; parameters: The TRIM33β cassette (residues 888–1127) was expressed; made in house; host or cells: E. coli BL21 (DE3) Gold; settings: cell 40 µM compound, syringe 316 µM TRIM33β
Source text: The first data point was excluded from the analysis.
(1 picture or pasted object on this page, not shown here)

TRIM33 = test system: TRIM33; parameters: method as in earlier work; settings: isoform later confirmed to be TRIM33α; read-out: reported TRIM33 IC50 (AlphaScreen); cited from earlier work
[3] = TRIM24 IC50 (AlphaScreen), peptide in assay H31-27K9Me3 (PHD)
[4] = TRIM24 IC50 (AlphaScreen), peptide in assay H31-27K9Me3K18Ac (DUAL)
[5] = TRIM24 IC50 (AlphaScreen), peptide in assay H31-27K18Ac (BRD)
[6] = peptide in assay H31-27K9Me3 (PHD)
[7] = peptide in assay H31-27K9Me3K18Ac (DUAL)
[8] = peptide in assay H31-27K18Ac (BRD)

SMILES: COc1ccc(Oc2cc3c(cc2NS(=O)(=O)c2ccc(OC)c(OC)c2)n(C)c(=O)n3C)cc1 [Compound 2]
Kd (BRPF1 BRD): 137 nM
IC50 (TRIM24 PHD-BRD; IC50 binding to the TRIM24 BRD-PHD (AlphaScreen), displacement of H3_1–27K18Ac): 219 nM
Kd (TRIM24 BRD): 222 nM
displacement of H3_1–27K18Ac from TRIM33α (AlphaScreen) (TRIM33α PHD-BRD): not for either isoform of TRIM33

SMILES: Cn1c(=O)n(C)c2cc(CNCCc3ccc(S(N)(=O)=O)cc3)ccc21 [Compound 8]
WaterLOGSY binding TRIM33β WT (TRIM33β WT): ✓
WaterLOGSY binding TRIM24 N980F (TRIM24 N980F): ×
WaterLOGSY binding TRIM33α WT (TRIM33α WT): ✓
WaterLOGSY binding TRIM24 WT (TRIM24 WT): ✓
WaterLOGSY binding TRIM33α N1039F (TRIM33α N1039F): ✓
WaterLOGSY binding TRIM33β N1039F (TRIM33β N1039F): ?

SMILES: COc1ccc(Nc2c(-c3[nH]cnc3C)nc3ccc(Br)cn23)cc1 [Compound 3]
IC50 (TRIM24 PHD-BRD; [3]): 1860 nM
IC50 (TRIM24 PHD-BRD; [4]): 1460 nM
IC50 (TRIM24 PHD-BRD; [5]): 1760 nM
IC50 (TRIM33β PHD-BRD [1]; [6]): 1400 nM
IC50 (TRIM33β PHD-BRD [1]; [7]): 1820 nM
IC50 (TRIM33β PHD-BRD [1]; [8]): 1490 nM
binding to TRIM33β by ITC (TRIM33β PHD-BRD [2]): Neither compound showed binding
IC50 (TRIM33α PHD-BRD; [6]): 1890 nM
IC50 (TRIM33α PHD-BRD; [7]): 1150 nM
IC50 (TRIM33α PHD-BRD; [8]): 1580 nM
IC50 (TRIM33): 538 nM

SMILES: Cc1nc[nH]c1-c1nc2ccccn2c1NCCN1CCOCC1 [Compound 4]
IC50 (TRIM24 PHD-BRD; [3]): 52000 nM
IC50 (TRIM24 PHD-BRD; [4]): 23100 nM
IC50 (TRIM24 PHD-BRD; [5]): 18600 nM
IC50 (TRIM33β PHD-BRD [1]; [6]): > 250000 nM
IC50 (TRIM33β PHD-BRD [1]; [7]): 58700 nM
IC50 (TRIM33β PHD-BRD [1]; [8]): 55300 nM
binding to TRIM33β by ITC (TRIM33β PHD-BRD [2]): Neither compound showed binding
IC50 (TRIM33α PHD-BRD; [6]): > 250000 nM
IC50 (TRIM33α PHD-BRD; [7]): > 250000 nM
IC50 (TRIM33α PHD-BRD; [8]): > 250000 nM
IC50 (TRIM33): 3780 nM

SMILES: CCCOc1cc(OCCCCN(C)C)cc(Oc2cc3c(cc2NS(=O)(=O)c2ccc(OC)c(OC)c2)n(C)c(=O)n3C)c1 [IACS-9571]
Kd (BRPF1 BRD): 14 nM

More lines, now with the values ahead:

WaterLOGSY binding TRIM33β WT (TRIM33β WT): ✓
WaterLOGSY binding TRIM24 N980F (TRIM24 N980F): ✓
WaterLOGSY binding TRIM33α WT (TRIM33α WT): ✓
WaterLOGSY binding TRIM24 WT (TRIM24 WT): ✓
WaterLOGSY binding TRIM33α N1039F (TRIM33α N1039F): ✓
WaterLOGSY binding TRIM33β N1039F (TRIM33β N1039F): ✓
SMILES: Cc1cc2c(NC(=O)Nc3ccccc3)cccc2nn1 [Compound 11]

WaterLOGSY binding TRIM33β WT (TRIM33β WT): ✓
WaterLOGSY binding TRIM24 N980F (TRIM24 N980F): ×
WaterLOGSY binding TRIM33α WT (TRIM33α WT): ✓
WaterLOGSY binding TRIM24 WT (TRIM24 WT): ×
WaterLOGSY binding TRIM33α N1039F (TRIM33α N1039F): ✓
WaterLOGSY binding TRIM33β N1039F (TRIM33β N1039F): ×
SMILES: O=C(CN1CCOC(c2cncc(-c3cccc(F)c3)n2)C1)NCc1ccccn1 (stereo not drawn) [Compound 9]

WaterLOGSY binding TRIM33β WT (TRIM33β WT): ✓
WaterLOGSY binding TRIM24 N980F (TRIM24 N980F): ✓
WaterLOGSY binding TRIM33α WT (TRIM33α WT): ✓
WaterLOGSY binding TRIM24 WT (TRIM24 WT): ✓
WaterLOGSY binding TRIM33α N1039F (TRIM33α N1039F): ✓
WaterLOGSY binding TRIM33β N1039F (TRIM33β N1039F): ✓
SMILES: O=C(Nc1ccccc1)Nc1ccc2cccnc2c1 [Compound 10]
